According to patent US11179449B2, “Immunogenic preprocalcitonin peptides” (Institut Gustave Roussy, priority 2015, dated 2021):

Legend:
[1] = test system: PBMC of patients with non-small cell lung cancer (NSCLC); assay: In vitro stimulation of PBMC of NSCLC patients with 9- or 10-aa ppCT peptides, CD8+/IFNγ+ cells by flow cytometry; format: cell-based, human
Protocol: The peripheral blood mononuclear cells (PBMC) of 11 patients with non-small cell lung cancer (NSCLC) were isolated from the peripheral blood by Ficoll. For each peptide, the PBMC were stimulated twice (D0 and D7) with 20 μM of peptide. The PBMC were cultivated for 2 weeks on 96-well plates, at a rate of 20 million cells/plate, on complete medium (RPMI 1640, 10% SAB, 1% sodium pyruvate, 0.1% penicillin/[…]) in the presence of IL-2 (20 IU/ml)+IL-4 (10 ng/ml)+IL-7 (10 ng/ml).
After 15 days, the PBMC are again stimulated with 2.5 μM of the peptide used during the first stimulation step, in the presence of 100 μg/ml of Brefeldin A, and incubated for 6 hours at 37° C., 5% CO2. The cells are then incubated for 20 minutes with an anti-CD8-APC antibody, then washed in PBS, fixed with PBS-formaldehyde 2% and permeabilised by BSA/saponin. They are then incubated with an anti-IFN-γ-PE antibody. The analysis is carried out by flow cytometry. The statistical study is performed using the Mann-Whitney test and the statistically significant increases are indicated (*p<0.05; **p<0.01; ***p<0.005).

[2] = test system: CD8 T lymphocytes expressing IFNγ (splenocytes); assay: Immunisation of HLA-A2 transgenic mice with peptide combinations, CD8+/IFNγ+ splenocytes by flow cytometry after ex vivo restimulation; format: in vivo, transgenic mice for the HLA-A2 molecules; conditions: splenocytes of immunised mice
Protocol: The transgenic mice for the HLA-A2 molecules were immunised 4 times (D0, D7, D14 and D21), under the skin on the flank, with 100 μl of peptide combinations containing an equimolar mixture of 100 μM of each of the peptides and an adjuvant (25 μg of Poly (I:C)) (FIG. 4). At 28 days after the first injection, the mice were sacrificed and the splenocytes were recovered and cultivated overnight in complete medium (RPMI 1640, 10% FBS, 1% sodium pyruvate, 0.1% penicillin/[…]) in the presence of IL-2 (20 IU/ml).
The next day, the splenocytes were stimulated with 2.5 μM of each of the peptides, alone or in combination, in the presence of 10 μg/ml of Brefeldin A and incubated for 6 hours at 37° C., 5% CO2. The cells are then incubated for 20 minutes with an anti-CD8-PE antibody, then washed in PBS, fixed with PBS-formaldehyde 2% and permeabilised with BSA/saponin. They are then incubated with an anti-IFNγ-APC antibody. The analysis is carried out by flow cytometry.

[3] = patients 4, 5 and 7 (respond only to these peptides)

| Sequence | lymphocyte response after stimulation ([1]; patient 3) | lymphocyte response after stimulation [1, 3] | CD8 T lymphocyte response induced by the peptide alone on ex vivo stimulation [2] |
| --- | --- | --- | --- |
| CMLGTYTQDF (synthetic peptide ppCT91-100) | triggers a response | – | – |
| FLALSILVL (synthetic peptide ppCT9-17) | – | trigger a lymphocyte response | – |
| LLAALVQDYV (synthetic peptide ppCT50-59) | triggers a response | trigger a lymphocyte response | strong response |
